Data: patent US20210239681A1, “COMPOSITIONS AND METHODS FOR […] OF […]-BASED IMMUNOTHERAPEUTICS” (ADVAXIS, INC., priority 2018, published 2021)

What was measured:
Format in all cases: cell-based, human
THP-1 cells [1] = experiment: Intracellular cytokine staining of THP-1 cells; details: FIGS. 3A-3C, FIG. 10
Experimental: (§1) To identify cytokines that can be used to measure potency of a Listeria-based therapeutic the following tests were performed. Intracellular cytokine staining was used to detect T cells specificity. THP-1 were incubated with peptide overnight, mixed with T cells from above and centrifuged. The collected cells were then co-cultured at 37° C. for 1 hour. Brefeldin A was then added and the cells were co-cultured for another 4 hours. Brefeldin A inhibits secretion and permits analysis by flow cytometry. Cell were then stained to identify dead cells and CD8+ cells. The cell were then fixed and stained for IFNγ (using fix and permeabilization buffer from eBioscience/Invitrogen).
Intracellular cytokine staining of THP-1 cells.

[2] = tested on: E7 (11-20) specific T cells; experiment: Initial THP-1 / T cell co-culture cytokine production (T cell culture with 6% E7 (11-20) specific T cells); parameters: IFNγ / TNF-α / IL-10 / IL-12p70 / IL-13 / IL-1β / IL-2 / IL-4 / IL-6 / IL-8: unit not given here; details: T cells and THP-1 incubated with peptide one hour; overnight co-culture
Experimental: (§2) Analysis Kits and Reagents: Analysis of cytokine concentrations in culture medium used the U-plex assay kits from Meso Scale Discovery. Expression of T cell receptors specific for E7 peptide bound to HLA-A*02:01 was detected using HLA-A*02:01/peptide tetramers from MBL International (Woburn, Mass.).
Infection of THP-1: The THP-1 cell line was infected with either ADXS11-001 or XFL7 by incubating 10^6 cells with dilutions of bacteria in a 1 mL volume of RPMI 1640 10% FBS. Incubation with bacteria was at 37° C., 5% CO2 for the indicated times, then extracellular bacteria were eliminated by washing and incubation in the presence of 50 μg/mL gentamicin for 1 hour at 37° C. After incubation with gentamicin the cells were washed again and resuspended to the desired cell concentration.
(§3) T cell cytokine expression analysis. An initial experiment using THP-1 as antigen presenting cells was performed using a T cell culture containing 6% E7 (11-20) specific T cells based upon staining with HLA-A*02:01/peptide tetramer. THP-1 cells were infected as described using two different concentrations of bacteria and then co-cultured with the T cells. Controls included uninfected THP-1 cells and THP-1 cells incubated with (exposed to) either the 9mer or 10mer peptide for one hour. After an overnight co-culture, medium was collected for analysis of cytokines.

PBMC = experiment: Cytokine release by donor PBMC cultured with peptide; parameters: unit not given beside the values; details: release on antigen
Experimental: Peripheral blood mononuclear cells (PBMCs) samples were collected from three human HLA-A*02:01 donors: 358, 213, and 224. The peripheral blood mononuclear cells (PBMCs) were cultured with one of two E7 peptides: […] (9mer or 1T; SEQ ID NO: 100) or […] (10mer or 2T; SEQ ID NO: 101). After 10 days culture, the PBMCs were tested for E7 peptide binding staining and cytokine release.

9mer specific T cells = experiment: Co-culture of THP-1 with 9mer specific T cells, cytokine production; parameters: IFNγ / IL-10 / IL-12p70 / IL-13 / IL-1β / IL-2 / IL-5 / IL-6 / TNF-α: unit not given here; details: for IFNγ production, with 9mer specific T cells: Listeria MOI of 10, optical density
From the text: as §2
(§4) There were several possible explanations for the muted response with THP-1 cells infected with ADSX11: including failure of THP-1 cells to process the 10mer epitope from full length E7 protein, failure of the THP-1 cells to present the processed 10mer E7 peptide on HLA-A*02:01, insufficient incubation of the infected cells to allow synthesis of the E7 protein and accumulation of the MHC/peptide complex on the cell surface, and/or an inhibitory effect of gentamicin. A culture of T cells specific for the 9mer epitope was used as well as a new culture of 10mer specific T cells. The THP-1 cells were infected as before with XFL7 or ADXS11-001 at an MOI of 10. After treatment with gentamicin for one hour, the cells were cultured overnight in the absence of gentamicin. The next day the infected cells were collected and co-cultured with 9mer or 10mer specific T cells. These co-cultures were set up in standard X-VIVO 15 and X-VIVO 15 without gentamicin or phenol red. The co-cultures were incubated overnight before collecting medium for cytokine analysis. The medium was tested for IFNγ concentrations and optical density. […] In addition, the 10mer specific T cells recognized ADXS11-001 infected THP-1 when there was no gentamicin in the medium.
(§5) To further explore the importance of the overnight incubation of infected THP-1, THP-1 cells infected overnight were compared to THP-1 cells infected for 2 hours. T cells specific for 9mer and 10mer peptides were co-cultured with each of the THP-1 cells and with uninfected or peptide exposed THP-1. As before, medium was collected after an overnight co-culture and cytokines were measured.
(§6) Optimization of infection time required for E7 presentation. THP-1 infected and cultured overnight compared to THP-1 infected for 2 hours and used after gentamicin treatment. Both 9-mer specific T cells and 10-mer specific T cells used. Assays were performed using X-VIVO 15 medium without gentamicin. The following cytokines were measured: IFNγ, IL-1β, IL-2, IL-10, IL-12p70, IL-13, IL-5, IL-6, TNFα.

T cells = experiment: Intracellular cytokine staining of T cells; details: Brefeldin A, FIG. 9
Experimental: as §1

10mer specific T cells = experiment: Co-culture of THP-1 with 10mer specific T cells, cytokine production; parameters: IFNγ / IL-10 / IL-13 / IL-1β / IL-2 / IL-5 / IL-6 / TNF-α: unit not given here; details: for IFNγ production, with 10mer specific T cells: Listeria MOI of 10, optical density
From the text: as §2, §4, §5, §6

THP-1 cells [3] = experiment: Cytokine production by THP-1 in the absence of T cells; details: Without gentamicin; Listeria MOI of 10; optical density
THP-1 cells [4] = experiment: as above; parameters: IL-6: unit not given here
Experimental: as §2
Infection of THP-1: The THP-1 cell line was infected with either ADXS11-001 or XFL7 by incubating 10^6 cells with dilutions of bacteria in a 1 mL volume of RPMI 1640 10% FBS. […] After incubation with gentamicin the cells were washed again and resuspended to the desired cell concentration.
as §3, §5
Titration studies with different multiplicity of infection (MOI). THP cells were infected for 2 hours with 3 different dilutions (MOI) of Listeria. Infected or uninfected THP cells were then cultured overnight for 24 hours before co-culturing the T cells. Cells were co-cultured overnight before cytokine analysis.

[5] = 9mer T cells + peptide exposed THP-1, overnight co-culture
[6] = 10mer T cells + peptide exposed THP-1, overnight co-culture
[7] = THP-1 incubated with peptide, absence of T cells

Substance: YMLDLQPET [9mer]
- Basal IFNγ in THP-1 cells after stimulation with peptide (THP-1 cells [1]): not detectable
- IFNγ [2]: 1508.2
- IL-1β [2]: 1.0
- IL-2 [2]: 3.7
- IL-4 [2]: 0.2
- IL-6 [2]: 4.2
- IL-8 [2]: 405.7
- IL-10 [2]: 2.1
- IL-12p70 [2]: <LLOD
- IL-13 [2]: 120.3
- TNF-α [2]: 57.1
- IFNγ Mean (PBMC; donor 213 PBMC cultured with 1T peptide): 242.6
- IFNγ Mean (PBMC; donor 358 PBMC stimulated with 1T): 1642.7
- IFNγ Mean (PBMC; donor 358 PBMC stimulated with 2T): 352.4
- IFNγ production, with 9mer specific T cells (9mer specific T cells; 50 μg/mL gentamicin): 0.177
- IFNγ (9mer specific T cells; [5]): 4713
- IL-1β (9mer specific T cells; [5]): 0
- IL-2 (9mer specific T cells; [5]): 18
- IL-5 (9mer specific T cells; [5]): 0
- IL-6 (9mer specific T cells; [5]): 13
- IL-10 (9mer specific T cells; [5]): 1
- IL-12p70 (9mer specific T cells; [5]): 0
- IL-13 (9mer specific T cells; [5]): 3
- TNF-α (9mer specific T cells; [5]): 74
- IFNγ production, with 9mer specific T cells (9mer specific T cells; Without gentamicin): 0.117
- IFNγ in T cells after stimulation with peptide (T cells): detected
- IFNγ production, with 10mer specific T cells (10mer specific T cells; 50 μg/mL gentamicin): 0.063
- IFNγ (10mer specific T cells; [6]): 103
- IL-1β (10mer specific T cells; [6]): <LLOD
- IL-2 (10mer specific T cells; [6]): <LLOD
- IL-5 (10mer specific T cells; [6]): <LLOD
- IL-6 (10mer specific T cells; [6]): <LLOD
- IL-10 (10mer specific T cells; [6]): 0
- IL-12p70 (10mer specific T cells; [6]): <LLOD
- IL-13 (10mer specific T cells; [6]): <LLOD
- TNF-α (10mer specific T cells; [6]): <LLOD
- IFNγ production, with 10mer specific T cells (10mer specific T cells; Without gentamicin): 0.062
- IFNγ production, THP-1 alone (THP-1 cells [3]): 0.059
- IFNγ production, THP-1 alone (THP-1 cells [4]; 50 μg/mL gentamicin, Listeria MOI of 10, optical density): 0.064
- IFNγ (THP-1 cells [4]; THP-1 alone, peptide exposed): <LLOD
- IL-1β (THP-1 cells [4]; THP-1 alone, peptide exposed): <LLOD
- IL-2 (THP-1 cells [4]; THP-1 alone, peptide exposed): <LLOD
- IL-5 (THP-1 cells [4]; THP-1 alone, peptide exposed): <LLOD
- IL-6 (THP-1 cells [4]; THP-1 alone, peptide exposed): <LLOD
- IL-10 (THP-1 cells [4]; THP-1 alone, peptide exposed): <LLOD
- IL-12p70 (THP-1 cells [4]; THP-1 alone, peptide exposed): <LLOD
- IL-13 (THP-1 cells [4]; THP-1 alone, peptide exposed): <LLOD
- TNF-α (THP-1 cells [4]; THP-1 alone, peptide exposed): 0
- IFNγ (THP-1 cells [4]; [7]): <LLOD
- IL-1β (THP-1 cells [4]; [7]): 0.0
- IL-2 (THP-1 cells [4]; [7]): <LLOD
- IL-4 (THP-1 cells [4]; [7]): <LLOD
- IL-6 (THP-1 cells [4]; [7]): <LLOD
- IL-8 (THP-1 cells [4]; [7]): 7.3
- IL-10 (THP-1 cells [4]; [7]): <LLOD
- IL-12p70 (THP-1 cells [4]; [7]): <LLOD
- IL-13 (THP-1 cells [4]; [7]): <LLOD
- TNF-α (THP-1 cells [4]; [7]): <LLOD

Substance: gentamicin
- effect of gentamicin in the culture medium on antigen presentation (10mer specific T cells; Listeria-based infection of THP-1, 50 μg/mL): inhibits expression of E7 or antigen presentation
